Test results from publication PMC11627005 (Febs Letters, 2024).

Experiments:
Type in all cases: biochemical
[1] = target: E. coli respiratory complex I (proton-pumping NADH:ubiquinone oxidoreductase, NuoA to NuoN) (Escherichia coli, UniProt P0AFC7+P0AFD4+P33599, P33599:D325E)
[2] = target: E. coli respiratory complex I (proton-pumping NADH:ubiquinone oxidoreductase, NuoA to NuoN) (Escherichia coli, UniProt P0AFC7+P0AFD4+P33599, P33599:D325A)
[3] = target: E. coli respiratory complex I (proton-pumping NADH:ubiquinone oxidoreductase, NuoA to NuoN) (Escherichia coli, UniProt P0AFC7+P0AFD4+P33599)
[4] = target: E. coli respiratory complex I (proton-pumping NADH:ubiquinone oxidoreductase, NuoA to NuoN) (Escherichia coli, UniProt P0AFC7+P0AFD4+P33599, P33599:D325Q)
[5] = target: E. coli respiratory complex I (proton-pumping NADH:ubiquinone oxidoreductase, NuoA to NuoN) (Escherichia coli, UniProt P0AFC7+P0AFD4+P33599, P33599:D325N)

Compound: C/C=C(\C)[C@H](O)[C@H](C)/C=C(C)/C=C/C/C(C)=C/Cc1nc(OC)c(OC)c(O)c1C [piericidin A]
- IC50 [1]: 6.2 ± 0.5 µM
- IC50 [2]: 9.3 ± 0.8 µM
- IC50 [3]: 3.5 ± 0.2 µM
- IC50 [4]: 16.9 ± 1.2 µM
- IC50 [5]: 17.4 ± 0.6 µM
